Test results reported in PubChem BioAssay AID1963963 (Molecular Pharmacology Branch, DTP, NCI, 2024).

Test system: 958667-338-R-J2-PDC tumor spheroids viability
Assay: Anticancer human tumor 958667-338-R-J2-PDC patient-derived colon adenocarcinoma cell line growth inhibition [PI3K]
Settings: spheroids with HUVEC and MSC; for IC50: curve of first compound; for viability, T/C: stronger effect = lower value; active = viability on the fitted dose curve at most 10% of control; inactive = the rest
Summary of the method: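 Complex 3D spheroids (cancer cells + endothelial HUVEC + mesenchymal stem cells); drug pairs of targeted agent x inavolisib/alpelisib/duvelisib/copanlisib; half-log series from ~Cmax, max 10 microM if Cmax unknown; endpoint viability.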

[1] = second compound 0.0316 µM, first compound 0.0316 µM
[2] = second compound 0.0316 µM, first compound 0.1 µM
[3] = second compound 0.0316 µM, first compound 0.316 µM
[4] = second compound 0.0316 µM, first compound 1 µM
[5] = second compound 0.0316 µM, first compound 3.16 µM
[6] = second compound 0.0316 µM, first compound 10 µM
[7] = second compound 0.1 µM, first compound 0.0316 µM
[8] = second compound 0.1 µM, first compound 0.1 µM
[9] = second compound 0.1 µM, first compound 0.316 µM
[10] = second compound 0.1 µM, first compound 1 µM
[11] = second compound 0.1 µM, first compound 3.16 µM
[12] = second compound 0.1 µM, first compound 10 µM
[13] = second compound 0.316 µM, first compound 0.0316 µM
[14] = second compound 0.316 µM, first compound 0.1 µM
[15] = second compound 0.316 µM, first compound 0.316 µM
[16] = second compound 0.316 µM, first compound 1 µM
[17] = second compound 0.316 µM, first compound 3.16 µM
[18] = second compound 0.316 µM, first compound 10 µM
[19] = second compound 1 µM, first compound 0.0316 µM
[20] = second compound 1 µM, first compound 0.1 µM
[21] = second compound 1 µM, first compound 0.316 µM
[22] = second compound 1 µM, first compound 1 µM
[23] = second compound 1 µM, first compound 3.16 µM
[24] = second compound 1 µM, first compound 10 µM
[25] = second compound 3.16 µM, first compound 0.0316 µM
[26] = second compound 3.16 µM, first compound 0.1 µM
[27] = second compound 3.16 µM, first compound 0.316 µM
[28] = second compound 3.16 µM, first compound 1 µM
[29] = second compound 3.16 µM, first compound 3.16 µM
[30] = second compound 3.16 µM, first compound 10 µM
[31] = second compound 10 µM, first compound 0.0316 µM
[32] = second compound 10 µM, first compound 0.1 µM
[33] = second compound 10 µM, first compound 0.316 µM
[34] = second compound 10 µM, first compound 1 µM
[35] = second compound 10 µM, first compound 3.16 µM
[36] = second compound 10 µM, first compound 10 µM
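Also: spheroids exposed to compounds for seven days before readout.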

C=CC(=O)N1CCN(c2nc(=O)n(-c3c(C)ccnc3C(C)C)c3nc(-c4c(O)cccc4F)c(F)cc23)C(C)C1 (centres undefined) + Cc1nc(NC(=O)N2CCCC2C(N)=O)sc1-c1ccnc(C(C)(C)C(F)(F)F)c1
> 10 µM: IC50 (second compound 0.0316 µM) | IC50 (second compound 0.1 µM) | IC50 (second compound 0.316 µM) | IC50 (second compound 1 µM) | IC50 (second compound 3.16 µM) | IC50 (second compound 10 µM)
inactive: viability, T/C [1] 94.5% | viability, T/C [2] 100% | viability, T/C [3] 96.8% | viability, T/C [4] 114% | viability, T/C [5] 126% | viability, T/C [6] 112% | viability, T/C [7] 94.8% | viability, T/C [8] 111% | viability, T/C [9] 96.6% | viability, T/C [10] 110% | viability, T/C [11] 129% | viability, T/C [12] 107% | viability, T/C [13] 97.9% | viability, T/C [14] 86.9% | viability, T/C [15] 94.7% | viability, T/C [16] 113% | viability, T/C [17] 94.7% | viability, T/C [18] 84.7% | viability, T/C [19] 94% | viability, T/C [20] 76.7% | viability, T/C [21] 107% | viability, T/C [22] 83% | viability, T/C [23] 88.5% | viability, T/C [24] 85.2% | viability, T/C [25] 80.4% | viability, T/C [26] 73.5% | viability, T/C [27] 68.6% | viability, T/C [28] 73.3% | viability, T/C [29] 93.5% | viability, T/C [30] 82.2% | viability, T/C [31] 69.1% | viability, T/C [32] 60.5% | viability, T/C [33] 48.8% | viability, T/C [34] 63.5% | viability, T/C [35] 65.8% | viability, T/C [36] 68.9%

CC(Cn1ccc(-c2ccc(C#N)c(Cl)c2)n1)NC(=O)c1cc(C(C)O)[nH]n1 (centres undefined) + Cc1nc(NC(=O)N2CCCC2C(N)=O)sc1-c1ccnc(C(C)(C)C(F)(F)F)c1
inactive: viability, T/C [1] 78.8% | viability, T/C [2] 98.7% | viability, T/C [3] 84.2% | viability, T/C [4] 114% | viability, T/C [5] 102% | viability, T/C [6] 107% | viability, T/C [7] 86.8% | viability, T/C [8] 92.8% | viability, T/C [9] 97.9% | viability, T/C [10] 81.9% | viability, T/C [11] 91.9% | viability, T/C [12] 74.8% | viability, T/C [13] 106% | viability, T/C [14] 87.8% | viability, T/C [15] 90.8% | viability, T/C [16] 94.5% | viability, T/C [17] 86.3% | viability, T/C [18] 92.3% | viability, T/C [19] 62.9% | viability, T/C [20] 65.9% | viability, T/C [21] 95.9% | viability, T/C [22] 72.8% | viability, T/C [23] 92.7% | viability, T/C [24] 80% | viability, T/C [25] 76.3% | viability, T/C [26] 55% | viability, T/C [27] 62.8% | viability, T/C [28] 68.4% | viability, T/C [29] 85.4% | viability, T/C [30] 72.6% | viability, T/C [31] 52.5% | viability, T/C [32] 59.7% | viability, T/C [33] 47.7% | viability, T/C [34] 59.7% | viability, T/C [35] 72% | viability, T/C [36] 50.5%
> 10 µM: IC50 (second compound 0.0316 µM) | IC50 (second compound 0.1 µM) | IC50 (second compound 0.316 µM) | IC50 (second compound 1 µM) | IC50 (second compound 3.16 µM) | IC50 (second compound 10 µM)
